From PubChem BioAssay (NCI)
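Briefly, cells in 96-well plates were exposed to five compound concentrations for 48 h, and endpoints were estimated by linear interpolation. GI50 = concentration required for 50% inhibition of growth. TGI marks complete inhibition of growth.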

Assays:
Assay in all cases: NCI tumour cell line growth inhibition, 48 h
CAKI-1 renal = tested on: CAKI-1 renal
NCI-H226 lung = tested on: NCI-H226 lung
A549 NSCLC = tested on: A549 NSCLC
SR leukemia = tested on: SR leukemia
HS 578T breast = tested on: HS 578T breast
HCC-2998 colon = tested on: HCC-2998 colon
HOP-62 NSCLC = tested on: HOP-62 NSCLC
SF-268 CNS = tested on: SF-268 CNS
RPMI-8226 leukemia = tested on: RPMI-8226 leukemia
OVCAR-8 ovarian = tested on: OVCAR-8 ovarian
HT29 colon = tested on: HT29 colon
BT-549 breast = tested on: BT-549 breast
K-562 leukemia = tested on: K-562 leukemia
SK-MEL-2 melanoma = tested on: SK-MEL-2 melanoma
SW-620 colon = tested on: SW-620 colon
EKVX NSCLC = tested on: EKVX NSCLC
SK-MEL-28 melanoma = tested on: SK-MEL-28 melanoma
M14 melanoma = tested on: M14 melanoma
COLO 205 colon = tested on: COLO 205 colon
ACHN renal = tested on: ACHN renal
IGROV1 ovarian = tested on: IGROV1 ovarian
LOX IMVI melanoma = tested on: LOX IMVI melanoma
HOP-92 NSCLC = tested on: HOP-92 NSCLC
HCT-15 colon = tested on: HCT-15 colon
NCI-H23 lung = tested on: NCI-H23 lung
PC-3 prostate = tested on: PC-3 prostate
UO-31 renal = tested on: UO-31 renal
TK-10 renal = tested on: TK-10 renal
UACC-62 melanoma = tested on: UACC-62 melanoma
MOLT-4 leukemia = tested on: MOLT-4 leukemia
NCI-H522 lung = tested on: NCI-H522 lung
KM12 colon = tested on: KM12 colon
HL-60(TB) leukemia = tested on: HL-60(TB) leukemia
U251 CNS = tested on: U251 CNS
786-0 renal = tested on: 786-0 renal
MDA-MB-231 breast = tested on: MDA-MB-231 breast
SNB-19 CNS = tested on: SNB-19 CNS
HCT-116 colon = tested on: HCT-116 colon
MDA-MB-435 = tested on: MDA-MB-435
SK-OV-3 ovarian = tested on: SK-OV-3 ovarian
OVCAR-4 ovarian = tested on: OVCAR-4 ovarian
SNB-75 CNS = tested on: SNB-75 CNS
OVCAR-5 ovarian = tested on: OVCAR-5 ovarian
MALME-3M melanoma = tested on: MALME-3M melanoma
NCI-H460 lung = tested on: NCI-H460 lung
MCF7 breast = tested on: MCF7 breast
SN12C renal = tested on: SN12C renal
OVCAR-3 ovarian = tested on: OVCAR-3 ovarian
DU-145 prostate = tested on: DU-145 prostate
T-47D breast = tested on: T-47D breast
NCI/ADR-RES ovarian = tested on: NCI/ADR-RES ovarian
SF-539 CNS = tested on: SF-539 CNS
CCRF-CEM leukemia = tested on: CCRF-CEM leukemia
SK-MEL-5 melanoma = tested on: SK-MEL-5 melanoma
SF-295 CNS = tested on: SF-295 CNS
A498 renal = tested on: A498 renal
RXF 393 renal = tested on: RXF 393 renal

Compound: CCCNCc1cc(C)cc2c1nc(N1CCNCC1)n2Cc1cc(C)c(F)c(C)c1
- GI50 (CAKI-1 renal): 14.4 µM
- TGI (CAKI-1 renal): 27.6 µM
- GI50 (NCI-H226 lung): 19.1 µM
- TGI (NCI-H226 lung): 38.2 µM
- GI50 (A549 NSCLC): 4.54 µM
- TGI (A549 NSCLC): 17.1 µM
- GI50 (SR leukemia): 1.22 µM
- TGI (SR leukemia): 3.39 µM
- GI50 (HS 578T breast): 2.56 µM
- TGI (HS 578T breast): 11.6 µM
- GI50 (HCC-2998 colon): 1.83 µM
- TGI (HCC-2998 colon): 3.47 µM
- GI50 (HOP-62 NSCLC): 17 µM
- TGI (HOP-62 NSCLC): 32.2 µM
- GI50 (SF-268 CNS): 5.11 µM
- TGI (SF-268 CNS): 19.7 µM
- GI50 (RPMI-8226 leukemia): 2.09 µM
- TGI (RPMI-8226 leukemia): 5.29 µM
- GI50 (OVCAR-8 ovarian): 3.9 µM
- TGI (OVCAR-8 ovarian): 13.8 µM
- GI50 (HT29 colon): 2.09 µM
- TGI (HT29 colon): 5.29 µM
- GI50 (BT-549 breast): 12.3 µM
- TGI (BT-549 breast): 26.1 µM
- GI50 (K-562 leukemia): 1.9 µM
- TGI (K-562 leukemia): 3.78 µM
- GI50 (SK-MEL-2 melanoma): 14.1 µM
- TGI (SK-MEL-2 melanoma): 28.1 µM
- GI50 (SW-620 colon): 1.96 µM
- TGI (SW-620 colon): 4.34 µM
- GI50 (EKVX NSCLC): 9.56 µM
- TGI (EKVX NSCLC): 22.6 µM
- GI50 (SK-MEL-28 melanoma): 1.84 µM
- TGI (SK-MEL-28 melanoma): 3.54 µM
- GI50 (M14 melanoma): 1.86 µM
- TGI (M14 melanoma): 3.47 µM
- GI50 (COLO 205 colon): 1.82 µM
- TGI (COLO 205 colon): 3.42 µM
- GI50 (ACHN renal): 4.37 µM
- TGI (ACHN renal): 15.5 µM
- GI50 (IGROV1 ovarian): 10.3 µM
- TGI (IGROV1 ovarian): 25.1 µM
- GI50 (LOX IMVI melanoma): 1.72 µM
- TGI (LOX IMVI melanoma): 3.22 µM
- GI50 (HOP-92 NSCLC): 1.83 µM
- TGI (HOP-92 NSCLC): 6.49 µM
- GI50 (HCT-15 colon): 4.46 µM
- TGI (HCT-15 colon): 16.4 µM
- GI50 (NCI-H23 lung): 12.8 µM
- TGI (NCI-H23 lung): 27.3 µM
- GI50 (PC-3 prostate): 2.49 µM
- TGI (PC-3 prostate): 7.66 µM
- GI50 (UO-31 renal): 13.2 µM
- TGI (UO-31 renal): 27.3 µM
- GI50 (TK-10 renal): 14.3 µM
- TGI (TK-10 renal): 28 µM
- GI50 (UACC-62 melanoma): 1.87 µM
- TGI (UACC-62 melanoma): 3.66 µM
- GI50 (MOLT-4 leukemia): 1.8 µM
- TGI (MOLT-4 leukemia): 4.39 µM
- GI50 (NCI-H522 lung): 2.09 µM
- TGI (NCI-H522 lung): 5.67 µM
- GI50 (KM12 colon): 3.08 µM
- TGI (KM12 colon): 11.7 µM
- GI50 (HL-60(TB) leukemia): 1.76 µM
- TGI (HL-60(TB) leukemia): 3.8 µM
- GI50 (U251 CNS): 1.84 µM
- TGI (U251 CNS): 3.58 µM
- GI50 (786-0 renal): 1.86 µM
- TGI (786-0 renal): 3.96 µM
- GI50 (MDA-MB-231 breast): 1.61 µM
- TGI (MDA-MB-231 breast): 3.8 µM
- GI50 (SNB-19 CNS): 2.41 µM
- TGI (SNB-19 CNS): 7.18 µM
- GI50 (HCT-116 colon): 2.19 µM
- TGI (HCT-116 colon): 4.54 µM
- GI50 (MDA-MB-435): 1.7 µM
- TGI (MDA-MB-435): 3.21 µM
- GI50 (SK-OV-3 ovarian): 15.8 µM
- TGI (SK-OV-3 ovarian): 29.4 µM
- GI50 (OVCAR-4 ovarian): 7.12 µM
- TGI (OVCAR-4 ovarian): 21.8 µM
- GI50 (SNB-75 CNS): 12.1 µM
- TGI (SNB-75 CNS): 26.4 µM
- GI50 (OVCAR-5 ovarian): 7.58 µM
- TGI (OVCAR-5 ovarian): 22.3 µM
- GI50 (MALME-3M melanoma): 1.86 µM
- TGI (MALME-3M melanoma): 3.53 µM
- GI50 (NCI-H460 lung): 1.93 µM
- TGI (NCI-H460 lung): 4.03 µM
- GI50 (MCF7 breast): 2.25 µM
- TGI (MCF7 breast): 6.05 µM
- GI50 (SN12C renal): 7.57 µM
- TGI (SN12C renal): 21.6 µM
- GI50 (OVCAR-3 ovarian): 3.71 µM
- TGI (OVCAR-3 ovarian): 13.5 µM
- GI50 (DU-145 prostate): 6.15 µM
- TGI (DU-145 prostate): 19.6 µM
- GI50 (T-47D breast): 1.88 µM
- TGI (T-47D breast): 3.62 µM
- GI50 (NCI/ADR-RES ovarian): 16.1 µM
- TGI (NCI/ADR-RES ovarian): 31 µM
- GI50 (SF-539 CNS): 1.79 µM
- TGI (SF-539 CNS): 3.59 µM
- GI50 (CCRF-CEM leukemia): 2.2 µM
- TGI (CCRF-CEM leukemia): 4.71 µM
- GI50 (SK-MEL-5 melanoma): 1.75 µM
- TGI (SK-MEL-5 melanoma): 3.21 µM
- GI50 (SF-295 CNS): 1.79 µM
- TGI (SF-295 CNS): 3.57 µM

Compound: C=C1CC(COc2cc(Cl)nc(N)n2)C1
- GI50 (CAKI-1 renal): 22.8 µM
- TGI (CAKI-1 renal): 89.3 µM
- GI50 (NCI-H226 lung): 42.5 µM
- GI50 (A549 NSCLC): 33.9 µM
- GI50 (SR leukemia): 34.8 µM
- GI50 (HS 578T breast): 49.9 µM
- GI50 (SF-268 CNS): 70.4 µM
- GI50 (RPMI-8226 leukemia): 21.7 µM
- TGI (RPMI-8226 leukemia): 60.8 µM
- GI50 (OVCAR-8 ovarian): 43.7 µM
- GI50 (HT29 colon): 37 µM
- GI50 (BT-549 breast): 20.6 µM
- GI50 (K-562 leukemia): 40 µM
- GI50 (SK-MEL-2 melanoma): 31.4 µM
- GI50 (A498 renal): 28.4 µM
- TGI (A498 renal): 96.8 µM
- GI50 (SW-620 colon): 45.7 µM
- GI50 (EKVX NSCLC): 25.6 µM
- GI50 (COLO 205 colon): 21.1 µM
- TGI (COLO 205 colon): 60.8 µM
- GI50 (ACHN renal): 14.5 µM
- TGI (ACHN renal): 74.1 µM
- GI50 (IGROV1 ovarian): 84.1 µM
- GI50 (HOP-92 NSCLC): 23.1 µM
- TGI (HOP-92 NSCLC): 71.5 µM
- GI50 (HCT-15 colon): 33 µM
- GI50 (NCI-H23 lung): 38.6 µM
- GI50 (UO-31 renal): 35.6 µM
- GI50 (MOLT-4 leukemia): 40.2 µM
- GI50 (NCI-H522 lung): 27.6 µM
- GI50 (KM12 colon): 25.5 µM
- GI50 (HL-60(TB) leukemia): 35.1 µM
- GI50 (U251 CNS): 13.5 µM
- GI50 (786-0 renal): 49.5 µM
- GI50 (MDA-MB-231 breast): 30.1 µM
- GI50 (SNB-19 CNS): 37.2 µM
- GI50 (HCT-116 colon): 35.1 µM
- GI50 (SK-OV-3 ovarian): 69.7 µM
- GI50 (OVCAR-4 ovarian): 67.8 µM
- GI50 (SNB-75 CNS): 29.2 µM
- GI50 (OVCAR-5 ovarian): 66.9 µM
- GI50 (MALME-3M melanoma): 93.3 µM
- GI50 (NCI-H460 lung): 55.6 µM
- GI50 (MCF7 breast): 39.4 µM
- GI50 (SN12C renal): 44.1 µM
- GI50 (OVCAR-3 ovarian): 28.6 µM
- GI50 (DU-145 prostate): 47.7 µM
- GI50 (T-47D breast): 23.3 µM
- GI50 (NCI/ADR-RES ovarian): 33.4 µM
- GI50 (RXF 393 renal): 36.8 µM
- GI50 (CCRF-CEM leukemia): 69.6 µM
- GI50 (SK-MEL-5 melanoma): 44.4 µM
- GI50 (SF-295 CNS): 34.4 µM
